According to BindingDB's records for doi:10.1021/jm900095y (National Institute On Drug Abuse-Intramural Research Program, 2009):

Key:
[1] = Antagonist activity at human D3 receptor expressed in HEK293 cells assessed as inhibition of quinpirole-stimulated mitogenesis
[2] = Agonist activity at human D3 receptor expressed in HEK293 cells assessed as stimulation of mitogenesis

Row | Structure (SMILES) | IC50 [1] | EC50 [2]
1 | COc1ccccc1N1CCN(C/C=C/CNC(=O)c2cc3ccccc3o2)CC1 | 14.9 nM | 
2 | COc1ccccc1N1CCN(CC(O)CCNC(=O)c2cc3ccccc3s2)CC1 (centres undefined) | 39.1 nM | 
3 | O=C(NCCC(O)CN1CCN(c2cccc(Cl)c2Cl)CC1)c1cc2ccccc2o1 (centres undefined) |  | 22.8 nM
4 | CCCOc1ccccc1N1CCN(CC(O)CCNC(=O)c2cc3ccccc3[nH]2)CC1 (centres undefined) | 6.51 nM | 
5 | COc1ccccc1N1CCN(CC(O)CCNC(=O)c2cc3ccccc3o2)CC1 (centres undefined) | 11.2 nM | 
6 | COc1ccc2[nH]c(C(=O)NCCC(O)CN3CCN(c4cccc(Cl)c4Cl)CC3)cc2c1 (centres undefined) | 1.51 nM | 
7 | COc1ccccc1N1CCN(CCCCNC(=O)c2cc3cc(I)ccc3o2)CC1 [5-Iodo-benzofuran-2-carboxylic acid {4-[4-(2-methoxy-phenyl)-piperazin-1-yl]-butyl}-amide] | 22.9 nM | 
8 | COc1ccccc1N1CCN(CCCCNC(=O)c2cc3ccccc3s2)CC1 [Benzo[b]thiophene-2-carboxylic acid {4-[4-(2-methoxy-phenyl)-piperazin-1-yl]-butyl}-amide] | 0.22 nM | 
9 | O=C(NCC(O)CCN1CCN(c2cccc(Cl)c2Cl)CC1)c1cc2ccccc2[nH]1 (centres undefined) | 25.7 nM | 
10 | O=C(NCCC(O)CN1CCN(c2cccc(Cl)c2Cl)CC1)c1cc2cc(I)ccc2o1 (centres undefined) |  | 84 nM
11 | O=C(NC/C=C/CN1CCN(c2cccc(Cl)c2Cl)CC1)c1cc2ccccc2[nH]1 | 7 nM | 
12 | COc1ccccc1N1CCN(CC(O)CCNC(=O)c2cc3cc(I)ccc3o2)CC1 (centres undefined) | 14.5 nM | 

Further compounds by falling IC50 [1], results first:

Row | IC50 [1] | EC50 [2] | Structure (SMILES)
13 | 173 nM |  | COc1ccccc1N1CCN(CC(O)CCNC(=O)c2cc3cc(I)ccc3[nH]2)CC1 (centres undefined)
14 | 38 nM |  | O=C(NCCC(O)CN1CCN(c2cccc(Cl)c2Cl)CC1)c1cc2cc(I)ccc2[nH]1 (centres undefined)
15 | 12.1 nM |  | COc1ccccc1N1CCN(CC(O)CCNC(=O)c2cc3ccccc3[nH]2)CC1 (centres undefined)
16 | 2.39 nM |  | COc1ccccc1N1CCN(CCCCNC(=O)c2cc3ccccc3o2)CC1 [Benzofuran-2-carboxylic acid {4-[4-(2-methoxy-phenyl)-piperazin-1-yl]-butyl}-amide]
17 | 1.76 nM |  | COc1ccccc1N1CCN(CC(O)CCNC(=O)c2cc3cc(F)ccc3[nH]2)CC1 (centres undefined)
18 | 1.58 nM |  | COc1ccc2[nH]c(C(=O)NCCC(O)CN3CCN(c4ccccc4OC)CC3)cc2c1 (centres undefined)
19 | 1.09 nM |  | COc1ccccc1N1CCN(C/C=C/CNC(=O)c2cc3ccccc3s2)CC1
